Experimental data: patent US20030199671A1, “Binding molecules for Fc-region polypeptides” (priority 2001, published 2003)
“And” between values parts separate entries of the source, which are not always exact repeats. Identical values can stand only once. Like-named read-outs stand apart in the source and are kept apart here. Positions of bridges follow the written chain, without caps; N, C: chain ends. Residues, ends and D or L forms follow the SMILES beside them.

Columns and labels:
Assay in all cases: Fluorescence anisotropy binding, Oregon Green labeled peptide
human plasma IgG4 = biological target: T1, human plasma IgG4 (Homo sapiens, UniProt P01861)
T1 construct: the individual human plasma IgG isoforms: IgG1, IgG2, IgG3, or IgG4; purchased Calbiochem; host or cells: human plasma
Experimental: (§1) Peptides were synthesized by BACHEM and then Oregon Green labeled and HPLC purified. Binding studies were performed using human plasma IgG isoforms: IgG1, IgG2, IgG3, and IgG4, obtained from Calbiochem.
(§2) Binding studies were carried out at either pH 4.0, 7.5, or 9.5, with or without salt in the following buffers:
(§3) 2) 10 mM Sodium Citrate, 500 mM Sodium Chloride, 0.01% Tween 20, pH 4.0;
(§4) 4) […], 500 mM Sodium Chloride, 0.01% Tween 20, pH 7.5;
(§5) 5) 10 mM Sodium Bicarbonate, 0.01% Tween 20, pH 9.5;
(§6) 6) 10 mM Sodium Bicarbonate, 500 mM Sodium Chloride, 0.01% Tween 20, pH 9.5; or […]

human plasma IgG3 = biological target: T2, human plasma IgG3 (Homo sapiens, UniProt P01860)
T2 construct: the individual human plasma IgG isoforms: IgG1, IgG2, IgG3, or IgG4; purchased Calbiochem; host or cells: human plasma
Experimental: as §1, §2, §3, §4, §5, §6

human plasma IgG2 = biological target: T3, human plasma IgG2 (Homo sapiens, UniProt P01859)
T3 construct: the individual human plasma IgG isoforms: IgG1, IgG2, IgG3, or IgG4; purchased Calbiochem; host or cells: human plasma
Experimental: as §1, §2, §3, §4, §5, §6

human plasma IgG1 = biological target: T4, human plasma IgG1 (Homo sapiens, UniProt P01857)
T4 construct: the individual human plasma IgG isoforms: IgG1, IgG2, IgG3, or IgG4; purchased Calbiochem; host or cells: human plasma
Experimental: as §1, §2, §3, §4, §5, §6

[1] = 10 nM Tris-HCl, 500 mM Sodium Chloride, pH 7.5, read-out: KD (μM) IgG4 pH 7.5 + salt
[2] = 10 mM Sodium Bicarbonate, 500 mM Sodium Chloride, pH 9.5, read-out: KD (μM) IgG4 pH 9.5 + salt
[3] = 10 mM Sodium Bicarbonate, pH 9.5, read-out: KD (μM) IgG4 pH 9.5 − salt
[4] = 10 mM Sodium Citrate, 500 mM Sodium Chloride, pH 4.0, read-out: KD (μM) IgG4 pH 4.0 + salt
[5] = 10 mM Sodium Citrate, pH 4.0, read-out: KD (μM) IgG4 pH 4.0 − salt
[6] = 10 mM Tris-HCl, pH 7.5, read-out: KD (μM) IgG4 pH 7.5 − salt
[7] = TBS, 0.01% Tween 20, pH 7.5, read-out: KD (μM) IgG4 TBS
[8] = 10 nM Tris-HCl, 500 mM Sodium Chloride, pH 7.5, read-out: KD (μM) IgG3 pH 7.5 + salt
[9] = 10 mM Sodium Bicarbonate, 500 mM Sodium Chloride, pH 9.5, read-out: KD (μM) IgG3 pH 9.5 + salt
[10] = 10 mM Sodium Bicarbonate, pH 9.5, read-out: KD (μM) IgG3 pH 9.5 − salt
[11] = 10 mM Sodium Citrate, 500 mM Sodium Chloride, pH 4.0, read-out: KD (μM) IgG3 pH 4.0 + salt
[12] = 10 mM Sodium Citrate, pH 4.0, read-out: KD (μM) IgG3 pH 4.0 − salt
[13] = 10 mM Tris-HCl, pH 7.5, read-out: KD (μM) IgG3 pH 7.5 − salt
[14] = TBS, 0.01% Tween 20, pH 7.5, read-out: KD (μM) IgG3 TBS
[15] = 10 nM Tris-HCl, 500 mM Sodium Chloride, pH 7.5, read-out: KD (μM) IgG2 pH 7.5 + salt
[16] = 10 mM Sodium Bicarbonate, 500 mM Sodium Chloride, pH 9.5, read-out: KD (μM) IgG2 pH 9.5 + salt
[17] = 10 mM Sodium Bicarbonate, pH 9.5, read-out: KD (μM) IgG2 pH 9.5 − salt
[18] = 10 mM Sodium Citrate, 500 mM Sodium Chloride, pH 4.0, read-out: KD (μM) IgG2 pH 4.0 + salt
[19] = 10 mM Sodium Citrate, pH 4.0, read-out: KD (μM) IgG2 pH 4.0 − salt
[20] = 10 mM Tris-HCl, pH 7.5, read-out: KD (μM) IgG2 pH 7.5 − salt
[21] = TBS, 0.01% Tween 20, pH 7.5, read-out: KD (μM) IgG2 TBS
[22] = 10 nM Tris-HCl, 500 mM Sodium Chloride, pH 7.5, read-out: KD (μM) IgG1 pH 7.5 + salt
[23] = 10 mM Sodium Bicarbonate, 500 mM Sodium Chloride, pH 9.5, read-out: KD (μM) IgG1 pH 9.5 + salt
[24] = 10 mM Sodium Bicarbonate, pH 9.5, read-out: KD (μM) IgG1 pH 9.5 − salt
[25] = 10 mM Sodium Citrate, 500 mM Sodium Chloride, pH 4.0, read-out: KD (μM) IgG1 pH 4.0 + salt
[26] = 10 mM Sodium Citrate, pH 4.0, read-out: KD (μM) IgG1 pH 4.0 − salt
[27] = 10 mM Tris-HCl, pH 7.5, read-out: KD (μM) IgG1 pH 7.5 − salt
[28] = TBS, 0.01% Tween 20, pH 7.5, read-out: KD (μM) IgG1 TBS

T4 sequence (P01857 1-330 isoform P01857-1): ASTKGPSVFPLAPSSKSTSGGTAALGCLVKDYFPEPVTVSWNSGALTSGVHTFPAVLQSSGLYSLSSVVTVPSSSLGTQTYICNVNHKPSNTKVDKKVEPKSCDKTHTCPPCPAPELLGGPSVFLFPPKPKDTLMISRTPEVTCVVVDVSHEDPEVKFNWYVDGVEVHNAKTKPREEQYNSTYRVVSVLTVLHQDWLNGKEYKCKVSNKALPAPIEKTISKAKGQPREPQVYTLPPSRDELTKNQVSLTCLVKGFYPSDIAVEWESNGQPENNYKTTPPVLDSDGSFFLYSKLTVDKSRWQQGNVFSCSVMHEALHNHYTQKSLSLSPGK
T1 sequence (P01861 1-327 isoform P01861-1): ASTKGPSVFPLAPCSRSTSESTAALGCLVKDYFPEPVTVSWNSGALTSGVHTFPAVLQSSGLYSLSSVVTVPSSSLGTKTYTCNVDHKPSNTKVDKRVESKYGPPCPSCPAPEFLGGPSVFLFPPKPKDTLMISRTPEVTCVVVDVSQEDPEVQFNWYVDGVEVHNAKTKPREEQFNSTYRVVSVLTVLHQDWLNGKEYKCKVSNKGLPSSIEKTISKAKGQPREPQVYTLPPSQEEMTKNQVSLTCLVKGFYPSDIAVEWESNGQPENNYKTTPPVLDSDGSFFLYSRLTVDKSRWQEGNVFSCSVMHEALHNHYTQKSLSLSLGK
T2 sequence (P01860 1-377 isoform P01860-1): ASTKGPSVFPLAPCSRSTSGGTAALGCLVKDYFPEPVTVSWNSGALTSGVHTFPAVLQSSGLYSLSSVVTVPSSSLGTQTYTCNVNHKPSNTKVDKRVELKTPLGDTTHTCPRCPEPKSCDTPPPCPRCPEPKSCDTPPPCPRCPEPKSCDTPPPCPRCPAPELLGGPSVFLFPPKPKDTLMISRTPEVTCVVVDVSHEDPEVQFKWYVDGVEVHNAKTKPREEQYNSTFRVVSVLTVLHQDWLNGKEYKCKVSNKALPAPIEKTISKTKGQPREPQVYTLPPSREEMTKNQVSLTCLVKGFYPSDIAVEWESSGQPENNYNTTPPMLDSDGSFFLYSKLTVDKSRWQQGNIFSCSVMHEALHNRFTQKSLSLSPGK
T3 sequence (P01859 1-326 isoform P01859-1): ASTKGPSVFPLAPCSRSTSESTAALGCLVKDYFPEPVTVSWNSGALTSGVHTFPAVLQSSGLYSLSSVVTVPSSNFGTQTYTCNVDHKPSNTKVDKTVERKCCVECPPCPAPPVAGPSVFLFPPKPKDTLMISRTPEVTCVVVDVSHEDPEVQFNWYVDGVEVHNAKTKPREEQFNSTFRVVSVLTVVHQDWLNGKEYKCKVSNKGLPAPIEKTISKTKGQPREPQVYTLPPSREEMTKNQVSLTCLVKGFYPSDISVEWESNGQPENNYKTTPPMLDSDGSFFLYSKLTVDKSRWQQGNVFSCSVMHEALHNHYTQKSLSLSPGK

CC(=O)N[C@@H](C)C(=O)NCC(=O)N1CCC[C@H]1C(=O)N[C@@H](Cc1c[nH]cn1)C(=O)N[C@@H](CC(N)=O)C(=O)N[C@H]1CSSC[C@@H](C(=O)N[C@@H](CCCCN)C(=O)N[C@@H](Cc2c[nH]c3ccccc23)C(=O)N[C@@H](Cc2ccccc2)C(=O)N2CCC[C@H]2C(=O)NCC(=O)N2CCC[C@H]2C(=O)N[C@@H](CCC(=O)O)C(=O)NCC(=O)NCC(=O)NCC(=O)N[C@@H](CCCCN)C(N)=O)NC(=O)[C@H](Cc2ccc(O)cc2)NC(=O)[C@H](Cc2c[nH]c3ccccc23)NC(=O)[C@H](Cc2ccc(O)cc2)NC(=O)[C@H](Cc2c[nH]cn2)NC(=O)[C@H](CC(=O)O)NC(=O)[C@H](CC(=O)O)NC1=O [DX389] (Ac-AGPHNCDDHYWYCKWFPGPEGGGK-NH2; disulfide 6-13 (inferred))
Kd (human plasma IgG4; [1]): > 10 µM | Kd (human plasma IgG4; [2]): > 10 µM | Kd (human plasma IgG4; [3]): > 10 µM | Kd (human plasma IgG4; [4]): > 10 µM | Kd (human plasma IgG4; [5]): > 10 µM | Kd (human plasma IgG4; [6]): > 10 µM | Kd (human plasma IgG4; [7]): > 10 µM | Kd (human plasma IgG3; [8]): > 10 µM | Kd (human plasma IgG3; [9]): > 10 µM | Kd (human plasma IgG3; [10]): > 10 µM | Kd (human plasma IgG3; [11]): ~2 µM | Kd (human plasma IgG3; [12]): ~2 µM | Kd (human plasma IgG3; [13]): > 10 µM | Kd (human plasma IgG3; [14]): > 10 µM | Kd (human plasma IgG2; [15]): > 10 µM | Kd (human plasma IgG2; [16]): > 10 µM | Kd (human plasma IgG2; [17]): > 10 µM | Kd (human plasma IgG2; [18]): > 10 µM | Kd (human plasma IgG2; [19]): > 10 µM | Kd (human plasma IgG2; [20]): > 10 µM | Kd (human plasma IgG2; [21]): > 10 µM | Kd (human plasma IgG1; [22]): > 10 µM | Kd (human plasma IgG1; [23]): > 10 µM | Kd (human plasma IgG1; [24]): > 10 µM | Kd (human plasma IgG1; [25]): > 10 µM | Kd (human plasma IgG1; [26]): > 10 µM | Kd (human plasma IgG1; [27]): > 10 µM | Kd (human plasma IgG1; [28]): > 10 µM

CC(=O)N[C@@H](C)C(=O)NCC(=O)N[C@@H](CCCCN)C(=O)N[C@@H](Cc1ccc(O)cc1)C(=O)N[C@@H](Cc1c[nH]c2ccccc12)C(=O)N[C@H]1CSSC[C@@H](C(=O)N2CCC[C@H]2C(=O)N[C@@H](C)C(=O)N[C@@H](CC(N)=O)C(=O)N2CCC[C@H]2C(=O)NCC(=O)N2CCC[C@H]2C(=O)N[C@@H](CCC(=O)O)C(=O)NCC(=O)NCC(=O)NCC(=O)N[C@@H](CCCCN)C(N)=O)NC(=O)[C@H](C(C)C)NC(=O)CNC(=O)[C@H](Cc2c[nH]c3ccccc23)NC(=O)[C@H](CC(C)C)NC(=O)[C@H](CC(N)=O)NC1=O [DX395]
Kd (human plasma IgG4; [1]): > 10 µM | Kd (human plasma IgG4; [2]): > 10 µM | Kd (human plasma IgG4; [3]): > 10 µM | Kd (human plasma IgG4; [4]): > 10 µM | Kd (human plasma IgG4; [5]): > 10 µM | Kd (human plasma IgG4; [6]): > 10 µM | Kd (human plasma IgG4; [7]): > 10 µM | Kd (human plasma IgG3; [9]): > 10 µM | Kd (human plasma IgG3; [10]): > 10 µM | Kd (human plasma IgG3; [11]): 1 to 2 µM | Kd (human plasma IgG3; [12]): 1 ± 0.26 µM | Kd (human plasma IgG3; [13]): > 10 µM | Kd (human plasma IgG3; [14]): > 10 µM | Kd (human plasma IgG2; [15]): > 10 µM | Kd (human plasma IgG2; [16]): > 10 µM | Kd (human plasma IgG2; [17]): > 10 µM | Kd (human plasma IgG2; [18]): > 10 µM | Kd (human plasma IgG2; [19]): > 10 µM | Kd (human plasma IgG2; [20]): > 10 µM | Kd (human plasma IgG2; [21]): > 10 µM | Kd (human plasma IgG1; [22]): > 10 µM | Kd (human plasma IgG1; [23]): > 10 µM | Kd (human plasma IgG1; [24]): > 10 µM | Kd (human plasma IgG1; [25]): > 10 µM | Kd (human plasma IgG1; [26]): > 10 µM | Kd (human plasma IgG1; [27]): > 10 µM | Kd (human plasma IgG1; [28]): > 10 µM

CC(=O)N[C@@H](C)C(=O)NCC(=O)N[C@@H](C)C(=O)N[C@@H](C)C(=O)N[C@H](C(=O)N[C@H]1CSSC[C@@H](C(=O)N[C@H](C(=O)N[C@@H](CC(=O)O)C(=O)N[C@@H](CO)C(=O)N2CCC[C@H]2C(=O)NCC(=O)N2CCC[C@H]2C(=O)N[C@@H](CCC(=O)O)C(=O)NCC(=O)NCC(=O)NCC(=O)N[C@@H](CCCCN)C(N)=O)[C@@H](C)O)NC(=O)[C@H](Cc2ccccc2)NC(=O)[C@H](Cc2c[nH]c3ccccc23)NC(=O)[C@H](CCC(N)=O)NC(=O)[C@H](Cc2ccc(O)cc2)NC(=O)[C@H](Cc2ccc(O)cc2)NC(=O)[C@H](Cc2c[nH]c3ccccc23)NC(=O)[C@H](Cc2ccc(O)cc2)NC(=O)[C@H](CO)NC(=O)[C@H]([C@@H](C)O)NC(=O)[C@H](CO)NC1=O)[C@@H](C)O [DX398]
Kd (human plasma IgG4; [1]): > 10 µM | Kd (human plasma IgG4; [2]): > 10 µM | Kd (human plasma IgG4; [3]): > 10 µM | Kd (human plasma IgG4; [4]): > 10 µM | Kd (human plasma IgG4; [5]): ~2 µM | Kd (human plasma IgG4; [7]): > 10 µM | Kd (human plasma IgG3; [8]): 0.3 ± 0.03 µM | Kd (human plasma IgG3; [9]): 0.3 ± 0.1 µM | Kd (human plasma IgG3; [10]): > 10 µM | Kd (human plasma IgG3; [11]): 0.04 to 0.3 µM | Kd (human plasma IgG3; [12]): ~0.02 µM and 0.02 µM | Kd (human plasma IgG3; [13]): > 10 µM | Kd (human plasma IgG3; [14]): > 10 µM | Kd (human plasma IgG2; [15]): > 10 µM | Kd (human plasma IgG2; [16]): > 10 µM | Kd (human plasma IgG2; [17]): > 10 µM | Kd (human plasma IgG2; [18]): > 10 µM | Kd (human plasma IgG2; [19]): ~2 µM | Kd (human plasma IgG2; [20]): > 10 µM | Kd (human plasma IgG2; [21]): > 10 µM | Kd (human plasma IgG1; [22]): > 10 µM | Kd (human plasma IgG1; [23]): > 10 µM | Kd (human plasma IgG1; [24]): > 10 µM | Kd (human plasma IgG1; [25]): > 10 µM | Kd (human plasma IgG1; [26]): ~2 µM | Kd (human plasma IgG1; [28]): > 10 µM
